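1) Cells in 96-well plates. 2) Compound, 48 h, 5 concentrations. 3) Linear interpolation between surrounding doses. 4) Unreached endpoint = highest concentration. Abbreviation: GI50, concentration required for 50% inhibition of growth.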 Activity calls are given as the source filed them. Rule as the data show it: active = GI50 up to about 1.1 µM and inactive = higher.

Among the test systems are ACHN; COLO 205; DU-145; IGROV-1; K562; MDA-MB-231; Malme-3M; NCI-H226; OVCAR-5; RXF 393; SK-MEL-28; SK-OV-3; SNB-19; SW-620; UACC-257; UACC-62; MCF7; SK-MEL-2; SNB-75.
Common to all, as to test: growth of human tumour cells (NCI), 48 h

Take `Cc1cn(C2CC(/[N+]([O-])=N\Nc3ccc([N+](=O)[O-])cc3)C(CO)O2)c(=O)[nH]c1=O` (stereo not drawn): the GI50 with ACHN was > 100 µM (inactive); in the assay with COLO 205 it was > 100 µM (inactive); in the assay on DU-145, > 100 µM (inactive); in the assay with IGROV-1 it was 22.5 µM (inactive); in the assay on K562, > 100 µM (inactive); with MDA-MB-231 it was 73.3 µM (inactive). The GI50 in the assay with Malme-3M, in the assay with NCI-H226, in the assay on OVCAR-5, in the assay with RXF 393, with SK-MEL-28 and with SK-OV-3 was > 100 µM (inactive) each time. The GI50 with SNB-19, in the assay with SW-620, in the assay with UACC-257 and in the assay with UACC-62 was > 100 µM (inactive) in each case.
`COc1ccc(-[n+]2nc(S(=O)(=O)O)c(/C=C/c3ccc(N(C)C)cc3)cc2C#N)cc1`: the GI50 in the assay on ACHN, with COLO 205, with DU-145, in the assay with IGROV-1, in the assay with K562 and in the assay on MCF7 was > 100 µM (inactive) in each case. Further, the GI50 in the assay with MDA-MB-231, in the assay on NCI-H226, with OVCAR-5, in the assay on SK-MEL-28, in the assay with SK-MEL-2 and in the assay on SK-OV-3 was > 100 µM (inactive) in each case. Further, the GI50 in the assay on SNB-19, with SNB-75, with SW-620, with UACC-257 and in the assay on UACC-62 was > 100 µM (inactive) in each case.
As to `COC(=O)C1C(OC(=O)c2ccccc2)CC2CCC1N2C(N)=O` (stereo not drawn), the GI50 in the assay with ACHN, with COLO 205, in the assay on DU-145, in the assay on IGROV-1, with K562 and in the assay with MCF7 was > 100 µM (inactive) each time. The GI50 with MDA-MB-231, in the assay on Malme-3M, with NCI-H226, with OVCAR-5, with SK-MEL-28 and with SK-MEL-2 was > 100 µM (inactive) each time. Also, the GI50 in the assay on SK-OV-3, in the assay with SNB-19, with SNB-75, with SW-620, in the assay on UACC-257 and in the assay with UACC-62 was > 100 µM (inactive) throughout.
On to `CCOC(=O)c1ccc(NCc2ccc3nc(OC)c(OC)nc3c2)cc1`, for which the GI50 in the assay with ACHN, in the assay on COLO 205, in the assay on DU-145, with IGROV-1, in the assay on K562 and in the assay with MCF7 was > 100 µM (inactive) in each case. In addition, the GI50 is 72.6 µM (inactive) with MDA-MB-231; > 100 µM (inactive) in the assay on Malme-3M; > 100 µM (inactive) in the assay with NCI-H226; > 100 µM (inactive) in the assay with OVCAR-5; > 100 µM (inactive) with SK-MEL-28; > 100 µM (inactive) in the assay with SK-MEL-2. Besides, the GI50 in the assay with SK-OV-3 is > 100 µM (inactive); with SNB-19, > 100 µM (inactive); with SNB-75, 33.7 µM (inactive); in the assay on SW-620, > 100 µM (inactive); in the assay with UACC-257, > 100 µM (inactive); in the assay on UACC-62, > 100 µM (inactive).
Consider `Cc1cc(C#N)c(Nc2c(C)cccc2[N+](=O)[O-])s1`, for which the GI50 is 49.7 µM (inactive) in the assay with ACHN; > 100 µM (inactive) with COLO 205; 36.2 µM (inactive) with DU-145; > 100 µM (inactive) in the assay with K562; 24.7 µM (inactive) in the assay with MDA-MB-231; 40.2 µM (inactive) in the assay with Malme-3M. In addition, the GI50 in the assay on NCI-H226 was > 100 µM (inactive); in the assay on OVCAR-5, 12.4 µM (inactive); in the assay on RXF 393, 16.4 µM (inactive); with SK-MEL-28, 76.9 µM (inactive); with SK-OV-3 it was 35.4 µM (inactive); in the assay on SNB-19, 68.2 µM (inactive). For the same compound, the GI50 in the assay with SNB-75 is 21.5 µM (inactive); with SW-620, > 100 µM (inactive); in the assay with UACC-257, 39.3 µM (inactive); in the assay on UACC-62 it was 37.9 µM (inactive).
Regarding `CCCCOC(=O)Nc1ccc(S(=O)(=O)Nc2ccccc2Cl)cc1`, the GI50 is 27.8 µM (inactive) in the assay on ACHN; 20.7 µM (inactive) in the assay with COLO 205; 30.3 µM (inactive) with DU-145; 21.7 µM (inactive) with IGROV-1; 17.5 µM (inactive) with K562; 19.2 µM (inactive) with MCF7. The GI50 in the assay on MDA-MB-231 is 21 µM (inactive); in the assay on Malme-3M, 24.8 µM (inactive); in the assay with OVCAR-5 it was 25.8 µM (inactive); with RXF 393 it was 21.3 µM (inactive); in the assay on SK-MEL-28, 19.6 µM (inactive); with SK-MEL-2 it was 18.1 µM (inactive). Moreover, the GI50 with SK-OV-3 was 16.8 µM (inactive); in the assay with SNB-19, 22.6 µM (inactive); in the assay with SW-620 it was 14.1 µM (inactive); in the assay on UACC-257, 31.3 µM (inactive); in the assay on UACC-62, 17.1 µM (inactive).
For `CCOC(=O)c1ccc2c(c1)Cc1cc([N+](=O)[O-])ccc1-2`, the GI50 was 29.9 µM (inactive) in the assay on ACHN; 23.2 µM (inactive) in the assay on COLO 205; > 100 µM (inactive) with DU-145; 10.6 µM (inactive) in the assay on IGROV-1; 55 µM (inactive) in the assay on K562; 19.3 µM (inactive) in the assay on MCF7. The GI50 was 32.3 µM (inactive) in the assay on MDA-MB-231; > 100 µM (inactive) with Malme-3M; 17.8 µM (inactive) in the assay with NCI-H226; 57.4 µM (inactive) with OVCAR-5; 22.9 µM (inactive) in the assay on RXF 393; 43 µM (inactive) with SK-MEL-28. Also, the GI50 is 29.6 µM (inactive) with SK-OV-3; > 100 µM (inactive) in the assay on SNB-19; 65.2 µM (inactive) in the assay on SW-620; 48.1 µM (inactive) in the assay with UACC-257; 50 µM (inactive) in the assay on UACC-62.
In the case of `CS(=O)(=O)c1nc(-c2cc3c(c(S(C)(=O)=O)n2)CCCC3)cc2c1CCCCC2`, the GI50 was > 100 µM (inactive) in the assay with ACHN; > 100 µM (inactive) in the assay with COLO 205; > 100 µM (inactive) in the assay with DU-145; 11.2 µM (inactive) in the assay on IGROV-1; 65.5 µM (inactive) with MDA-MB-231; > 100 µM (inactive) in the assay on NCI-H226. In addition, the GI50 with OVCAR-5 was > 100 µM (inactive); with RXF 393 it was 48.6 µM (inactive); in the assay on SK-MEL-28, > 100 µM (inactive); in the assay on SK-MEL-2, > 100 µM (inactive); in the assay on SK-OV-3, 72.4 µM (inactive); with SNB-19, > 100 µM (inactive). Moreover, the GI50 was 22.4 µM (inactive) in the assay with SNB-75, > 100 µM (inactive) with SW-620, > 100 µM (inactive) in the assay on UACC-257 and > 100 µM (inactive) in the assay on UACC-62.
As to `CC(=O)Nc1ccc(Nc2nc(=O)[nH]c(=O)[nH]2)cc1`, the GI50 in the assay with ACHN, with COLO 205, in the assay with DU-145, in the assay with IGROV-1, with MCF7 and in the assay on MDA-MB-231 was > 100 µM (inactive) in each case. Further, the GI50 in the assay on Malme-3M, with NCI-H226, in the assay on OVCAR-5, with SK-MEL-28, with SK-MEL-2 and in the assay on SK-OV-3 was > 100 µM (inactive) throughout. The GI50 in the assay on SNB-19, with SNB-75, in the assay with SW-620, with UACC-257 and in the assay with UACC-62 was > 100 µM (inactive) each time.
With `C/C=C1\C(=O)OC2CCN3CCC(COC(=O)C(C)(O)C(C)C1O)C23` (stereo not drawn), the GI50 in the assay on ACHN, with COLO 205, in the assay on DU-145, in the assay on IGROV-1, with K562 and with MCF7 was > 100 µM (inactive) each time. For the same compound, the GI50 with MDA-MB-231, in the assay on Malme-3M, with NCI-H226, with OVCAR-5, in the assay on SK-MEL-28 and in the assay with SK-MEL-2 was > 100 µM (inactive) each time. For the same compound, the GI50 in the assay with SK-OV-3, in the assay on SNB-19, in the assay with SNB-75, in the assay on SW-620, in the assay on UACC-257 and in the assay with UACC-62 was > 100 µM (inactive) throughout.
Turning to `COC(=O)[C@H](CC(C)C)NC1=C(Cl)C(=O)c2c(O)ccc(O)c2C1=O`, the GI50 in the assay with ACHN was > 10 µM (inactive); in the assay on COLO 205 it was 4.34 µM (inactive); with DU-145 it was > 10 µM (inactive); with IGROV-1, > 10 µM (inactive); in the assay on K562 it was > 10 µM (inactive); with MDA-MB-231, > 10 µM (inactive). Further, the GI50 was 0.887 µM (active) in the assay on Malme-3M; > 10 µM (inactive) in the assay on NCI-H226; > 10 µM (inactive) in the assay on OVCAR-5; > 10 µM (inactive) with RXF 393; > 10 µM (inactive) in the assay with SK-MEL-28; > 10 µM (inactive) in the assay with SK-MEL-2. The GI50 in the assay with SK-OV-3 was > 10 µM (inactive); in the assay on SNB-19, > 10 µM (inactive); in the assay with SNB-75, > 10 µM (inactive); in the assay on SW-620, 9.64 µM (inactive); in the assay on UACC-257, > 10 µM (inactive); in the assay on UACC-62 it was > 10 µM (inactive).

The values are drawn from ChEMBL document CHEMBL1201862, “PubChem BioAssay data set” (2004).
